{"source": "patent US20240181007A1", "about": "“COMPOSITIONS AND METHODS FOR TREATING PULMONARY HYPERTENSION” (Acceleron Pharma Inc., priority 2021, published 2024)", "test_system": "ZSF1-SU rats", "experiment": "HFpEF induced PH rat model, ZSF1 rats challenged with semaxanib (Example 10)", "format": "in vivo", "settings": "relative to ZSF1-SU/PBS", "description": "The effects of an ActRIIA-mFc fusion polypeptide (SEQ ID NO: 56) was examined in a rat model of left ventricular diastolic dysfunction (also referred to as HEpEF) group 2 (subgroup 2.2) pulmonary hypertension (PH). In this model, ZSF1-Lepr^faLepr^cp/Crl rats were challenged with semaxanib to induce HFpEF-PH(l).\nForty ZSF1 Lepr^faLepr^cp/Crl male […] (8 wks old) and five lean rats were subcutaneously administered with a single dose of semaxanib (100 mg/kg) at day 0, and five lean rats were included as normal control. Six weeks after semaxanib (SU5416) treatment, Thirty-six ZSF1 Lepr^faLepr^cp/Crl rats were randomized into four groups: i) nine rats were injected subcutaneously with vehicle control (phosphate buffered saline (PBS)), twice weekly for 8 weeks starting from day 42 after semaxanib treatment, “ZSF1-SU/PBS”; a ii) ten rats were injected subcutaneously with ActRIIA-mFc at a dose of 1 mg/kg twice weekly for 8 weeks starting from day 42 after semaxanib treatment, “ZSF1-SU/ActRIIA-mFc 1 mpk”: a iii) nine rats were injected subcutaneously with ActRIIA-mFc at a dose of 3 mg/kg twice weekly for 8 weeks starting from day 42 after semaxanib treatment, “ZSF1-SU/ActRIIA-mFc 3 mpk”; and a iv) eight rats were injected subcutaneously with ActRIIA-mFc at a dose of 10 mg/kg twice weekly for 8 weeks starting from day 42 after semaxanib treatment, “ZSF1-SU/ActRIIA-mFc 10 mpk”. At the end of the study, echocardiography and pressure-volume catheter were performed to measure left and right ventricular remodeling and functional changes before animals were euthanized for heart and lung collection. Hearts and lungs of each rat were weighed, fixed in 10% formalin, embedded in paraffin, and sectioned for Masson's trichrome stain to assess fibrosis. Serum and urine samples were collected at the end of the study.\nRats were fasted overnight to measure fasting blood glucose levels at week 14 (before treatments started), week 18 (4 weeks after treatments), and week 22, and oral glucose tolerance test was performed at week 22. Blood glucose levels were measured with a glucometer after bleeding tail vein with a 27G needle. To prepare oral glucose tolerance test, 40% glucose stock solution run through a filter to sterilize it. After fasting overnight, rat body weight was measured. Blood glucose level was detected. Then 40% glucose solution was administered via oral gavage according to body weight (2 g/kg). Blood glucose levels were measured at 30, 60, 90, 120 minutes.\nPrior to euthanization, in vivo cardiac function was assessed by transthoracic echocardiography (Acuson P300, 18 MHz linear transducer; Siemens) in lightly anesthetized rats as described (2). From left ventricle short axis view, M-mode echocardiogram was acquired to measure interventricular septal thickness at end diastole (IVSd), left ventricular posterior wall thickness at end diastole (LVPWd), left ventricular end diastolic diameter (LVEDD), and left ventricular end systolic diameter (LVESD). Left ventricular mass (LVM) was assessed by the equation: 1.05 [(LVEDD+LVPTD+IVSd)^3-LVEDD^3]. Early diastolic filling peak velocity (E), early diastolic mitral annular velocity (E′), and isovolumetric relaxation time (IVRT) were measured from the medial or septal wall at the mitral valve level from tissue Doppler image. LV diastolic function was assessed by measuring the E/E′ ratio and IVRT. Pulmonary arterial acceleration time (PAAT), a parameter of right ventricular function, was also measured.\nFourteen weeks after semaxanib treatment, rats were anesthetized with ketamine (100 mg/kg) and xylazine (5 mg/kg) at the end of the experiment to evaluate cardiac and pulmonary hemodynamics. The respiration was supported by a small animal ventilator. Thoracotomy was made through 4-5 intercostal space, and the heart was exposed. A pressure-volume catheter (2.0-Fr, SPR-869, Millar Instruments, Houston, TX, USA) was be inserted into the left ventricle and right ventricle from the apex. […]", "key": {"[1]": {"settings": "1 mpk, 3 mpk and 10 mpk, FIGS. 41-43"}}}
{"substance": "ActRIIA-mFc: ActRIIA-mFc fusion polypeptide (SEQ ID NO: 56); extracellular domain fused to murine IgG2a Fc domain with a linker", "values": [{"measurement": "fasting blood glucose", "setting": "[1]", "result": "significantly reduced fasting blood glucose"}, {"measurement": "glucose level in urine", "setting": "[1]", "result": "decreased glucose level in urine"}, {"measurement": "glucose tolerance (oral glucose tolerance test)", "setting": "[1]", "result": "improved glucose tolerance"}, {"measurement": "E/E′ ratio", "setting": "3 mpk and 10 mpk s.c. twice weekly for 8 weeks from day 42 after semaxanib, FIG. 29", "result": "reduced E/E′ ratio"}, {"measurement": "IVRT", "setting": "3 mpk and 10 mpk s.c. twice weekly for 8 weeks from day 42 after semaxanib, FIG. 30", "result": "decreased IVRT"}, {"measurement": "RVFWT", "setting": "3 mpk and 10 mpk s.c. twice weekly for 8 weeks from day 42 after semaxanib, FIG. 34", "result": "significantly reduced elevated RVFWT"}, {"measurement": "PAAT", "setting": "3 mpk and 10 mpk s.c. twice weekly for 8 weeks from day 42 after semaxanib, FIG. 35", "result": "reduced PAAT"}, {"measurement": "RVSP", "setting": "3 mpk and 10 mpk s.c. twice weekly for 8 weeks from day 42 after semaxanib, FIG. 36", "result": "reduced elevated RVSP"}, {"measurement": "left heart remodeling (HW/TL, IVSd, LVM)", "setting": "3 mpk and 10 mpk s.c. twice weekly for 8 weeks from day 42 after semaxanib, FIGS. 31-33", "result": "significantly reduced left heart remodeling"}, {"measurement": "fibrosis in LV", "setting": "s.c. twice weekly for 8 weeks, dose not given, FIG. 37", "result": "significantly reduced the increased fibrosis"}, {"measurement": "fibrosis in RV", "setting": "s.c. twice weekly for 8 weeks, dose not given, FIG. 38", "result": "significantly reduced the increased fibrosis"}, {"measurement": "fibrosis in lung", "setting": "s.c. twice weekly for 8 weeks, dose not given, FIG. 39", "result": "significantly reduced the increased fibrosis"}]}
